The record followed here is PubChem BioAssay AID1745844 (Carcinogenic Potency Database (CPDB), 2022).

This data set deals with rodent lifetime carcinogenesis bioassay, tumor incidence TD50. As to the kind of experiment: chronic cancer bioassays in animals – CPDB, compiled studies (AID 1745844).

“And” between values parts separate entries of the source, which are not always exact repeats. Equal values may be shown once. The source made the active and inactive calls. No rule for the calls is given here.

Broadly, the TD50 is the 50% point of the dose-response relation for the toxic effect studied. Turning to `CCc1ccccc1`, the TD50 by setting is: (mouse, strain B6C3F1, females, inhaled, site: Harderian gland, lesion: adenoma, dosed 103 weeks, study length 104 weeks) 9070 mg/kg/day; (mouse, strain B6C3F1, females, inhaled, site: any site (literature study), lesion: several types, types named in the paper, dosed 103 weeks, study length 104 weeks) 4070 mg/kg/day; (mouse, strain B6C3F1, females, inhaled, site: liver, lesion: hepatocellular adenoma + hepatoblastoma + hepatocellular carcinoma, dosed 103 weeks, study length 104 weeks) 1880 mg/kg/day; (mouse, strain B6C3F1, females, inhaled, site: liver, lesion: hepatocellular adenoma + hepatocellular carcinoma, dosed 103 weeks, study length 104 weeks) 1880 mg/kg/day; (mouse, strain B6C3F1, females, inhaled, site: liver, lesion: hepatocellular adenoma, dosed 103 weeks, study length 104 weeks) 2450 mg/kg/day; (mouse, strain B6C3F1, females, inhaled, site: lung, lesion: alveolar/bronchiolar adenoma + alveolar/bronchiolar carcinoma, dosed 103 weeks, study length 104 weeks) 7950 mg/kg/day. Besides, the TD50 reads like this: (mouse, strain B6C3F1, males, inhaled, site: any site (literature study), lesion: several types, types named in the paper, dosed 103 weeks, study length 104 weeks) 2010 mg/kg/day; (mouse, strain B6C3F1, males, inhaled, site: liver, lesion: hepatocellular adenoma + hepatoblastoma + hepatocellular carcinoma, dosed 103 weeks, study length 104 weeks) 9310 mg/kg/day; (mouse, strain B6C3F1, males, inhaled, site: lung, lesion: alveolar/bronchiolar adenoma + alveolar/bronchiolar carcinoma, dosed 103 weeks, study length 104 weeks) 1400 mg/kg/day; (mouse, strain B6C3F1, males, inhaled, site: lung, lesion: alveolar/bronchiolar adenoma, dosed 103 weeks, study length 104 weeks) 1680 mg/kg/day; (rat, strain Fischer 344, males, inhaled, site: adrenal medulla, lesion: pheochromocytoma benign, bilateral + pheochromocytoma, benign, dosed 104 weeks, study length 104 weeks) 125 mg/kg/day; (rat, strain Fischer 344, males, inhaled, site: adrenal medulla, lesion: pheochromocytoma benign, bilateral + pheochromocytoma, malignant + pheochromocytoma, benign, dosed 104 weeks, study length 104 weeks) 106 mg/kg/day. Besides, the TD50 is 53 mg/kg/day (rat, strain Fischer 344, males, inhaled, site: any site (literature study), lesion: several types, types named in the paper, dosed 104 weeks, study length 104 weeks); 24.6 mg/kg/day (rat, strain Fischer 344, males, inhaled, site: kidney + testis, lesion: tubule adenoma + tubule carcinoma + interstitial-cell adenoma, bilateral + interstitial-cell adenoma, dosed 104 weeks, study length 104 weeks); 147 mg/kg/day and 255 mg/kg/day (rat, strain Fischer 344, males, inhaled, site: kidney, lesion: tubule adenoma + tubule carcinoma, dosed 104 weeks, study length 104 weeks); 232 mg/kg/day and 280 mg/kg/day (rat, strain Fischer 344, males, inhaled, site: kidney, lesion: tubule adenoma, dosed 104 weeks, study length 104 weeks); 24.8 mg/kg/day (rat, strain Fischer 344, males, inhaled, site: testis, lesion: interstitial-cell adenoma, bilateral + interstitial-cell adenoma, dosed 104 weeks, study length 104 weeks); 23.1 mg/kg/day (rat, strain Fischer 344, males, inhaled, site: testis, lesion: interstitial-cell adenoma, bilateral, dosed 104 weeks, study length 104 weeks). The TD50 is, setting by setting: (rat, strain Sprague-Dawley, females, by gavage, site: any site (literature study), lesion: malignant tumor, dosed 104 weeks, study length 123 weeks) 1610 mg/kg/day; (rat, strain Sprague-Dawley, females, by gavage, site: any site (literature study), lesion: malignant tumor, dosed 104 weeks, study length 141 weeks) 1210 mg/kg/day; (rat, strain Sprague-Dawley, females, by gavage, site: any site (literature study), lesion: several types, types named in the paper, dosed 104 weeks, study length 141 weeks) 635 mg/kg/day; (rat, strain Sprague-Dawley, females, by gavage, site: head, lesion: carcinoma, dosed 104 weeks, study length 123 weeks) 4170 mg/kg/day; (rat, strain Sprague-Dawley, females, by gavage, site: nasal cavity, lesion: carcinoma, dosed 104 weeks, study length 123 weeks) 18300 mg/kg/day; (rat, strain Sprague-Dawley, females, by gavage, site: nasal cavity, lesion: esthesioneuroepithelioma, dosed 104 weeks, study length 123 weeks) 18300 mg/kg/day. The TD50 (rat, strain Sprague-Dawley, females, by gavage, site: oral cavity, lesion: carcinoma, dosed 104 weeks, study length 123 weeks) was found to be 8890 mg/kg/day; the TD50 (rat, strain Sprague-Dawley, males, by gavage, site: any site (literature study), lesion: malignant tumor, dosed 104 weeks, study length 141 weeks) was 1980 mg/kg/day; the TD50 (rat, strain Sprague-Dawley, males, by gavage, site: any site (literature study), lesion: several types, types named in the paper, dosed 104 weeks, study length 141 weeks) came to 1160 mg/kg/day; the TD50 (rat, strain Sprague-Dawley, males, by gavage, site: ear duct, lesion: carcinoma, dosed 104 weeks, study length 123 weeks) was 18300 mg/kg/day; the TD50 (rat, strain Sprague-Dawley, males, by gavage, site: head, lesion: carcinoma, dosed 104 weeks, study length 123 weeks) is 4350 mg/kg/day; the TD50 (rat, strain Sprague-Dawley, males, by gavage, site: nasal cavity, lesion: esthesioneuroepithelioma, dosed 104 weeks, study length 123 weeks) was determined as 5990 mg/kg/day. The TD50 (rat, strain Sprague-Dawley, males, by gavage, site: oral cavity, lesion: carcinoma, dosed 104 weeks, study length 123 weeks) worked out at 18300 mg/kg/day.
Consider `C1C2OC2C2C1C1CC2C2OC12` (stereo unspecified), for which the TD50 (mouse, strain CD-1 HaM/ICR, females, in feed, site: any site (literature study), lesion: several types, types named in the paper, dosed 64 weeks, study length 86 weeks) is 789 mg/kg/day (inactive); the TD50 (mouse, strain CD-1 HaM/ICR, females, in feed, site: lung, lesion: several types, types named in the paper, dosed 64 weeks, study length 86 weeks) was 1660 mg/kg/day (inactive); the TD50 (mouse, strain CD-1 HaM/ICR, males, in feed, site: any site (literature study), lesion: several types, types named in the paper, dosed 77 weeks, study length 86 weeks) is 149 mg/kg/day (inactive); the TD50 (mouse, strain CD-1 HaM/ICR, males, in feed, site: liver, lesion: several types, types named in the paper, dosed 77 weeks, study length 86 weeks) is 930 mg/kg/day (inactive); the TD50 (mouse, strain CD-1 HaM/ICR, males, in feed, site: lung, lesion: several types, types named in the paper, dosed 77 weeks, study length 86 weeks) was 373 mg/kg/day (inactive); the TD50 (rat, strain Charles River CD (Sprague-Dawley), males, in feed, site: any site (literature study), lesion: several types, types named in the paper, dosed 77 weeks, study length 107 weeks) is 176 mg/kg/day (inactive). The TD50 (rat, strain Charles River CD (Sprague-Dawley), males, in feed, site: liver, lesion: several types, types named in the paper, dosed 77 weeks, study length 107 weeks) is 3910 mg/kg/day (inactive). Under “mouse, strain CD-1 HaM/ICR, females, in feed, site: liver, lesion: several types, types named in the paper, dosed 64 weeks, study length 86 weeks”, the carcinogen call is “negative (inactive)”.
For `NNc1nc(-c2ccccc2)cs1`, the TD50 (rat, strain Sprague-Dawley, females, in feed, site: any site (literature study), lesion: several types, types named in the paper, dosed 46 weeks, study length 66 weeks) is 311 mg/kg/day (inactive).
In the case of `O=NN1CCOC(O)C1` (stereo unspecified), under “rat, strain Fischer 344, females, in drinking water, site: liver, lesion: hepatocellular carcinoma, dosed 50 weeks, study length 122 weeks”, the TD50 is 14.9 mg/kg/day (inactive).
